Where two headings read alike, the source gives them in different places.
Tests used:
[1] = target: T1, PI3Kδ kinase (Homo sapiens, UniProt O00329); assay: PI3Kδ kinase assay (ADP-Glo, Reaction Biology); assay type: biochemical
T1 construct: purchased Reaction Biology Corporation (assay service)
Procedure, shortened: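 Kinase in Tris-HCl 40 mM pH 7.5, MgCl2 20 mM, orthovanadate 3 mM, DTT 2 mM, 0.05% CHAPS, 1% DMSO, preincubated 10 min at room temperature with compound (about 0.5 nM–100 μM). ATP started a 30-min reaction at 30 °C. ADP-Glo luminescence converted to μM ADP via standard curve; IC50 from nonlinear regression.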

[2] = system: Rb Ser780 phosphorylation in MCF-7 cells; assay: Determination of pRb levels (Ser780 phosphorylation, ELISA); assay type: cell-based; settings: Homo sapiens, 24H treatment, percentage of vehicle control
Procedure: Hypo-phosphorylation of the retinoblastoma protein (Rb) by cyclin D:Cdk4/6 complexes results in active Rb, which is a clinically relevant biomarker associated with CDK4 or CDK6 inhibition. As a confirmatory measure of functional activity of CDK4/6, the Ser780 phosphorylation state of Rb was assessed. MCF-7 cells were plated at 2.5×10^5 to 3.0×10^6 cells/well in 6-well cell-culture plates and incubated at 37° C. for 24H in MEM medium supplemented with 10% FBS. Cells were treated for 24H with a medium containing test compound at various concentrations (e.g., 0.01, 0.1, […]) or with DMSO (≤1%) in duplicate. After incubation period, the media was removed, and cells were rinsed once with ice-cold PBS and lysed with 0.2 mL of Cell Lysis Buffer containing 1 mM PMSF and Protease Inhibitor. Protein concentration was estimated following Bradford method. The lysis and the Rb measurements were performed following the manufacturer's ELISA kit protocols and buffers (Cell Signaling Technology, Cat. No.: 13016C). Rb inhibition of test compounds was calculated as percentage of vehicle control. In some cases, a nonlinear regression model with a sigmoidal dose response and variable slope within GraphPad Prism was used to calculate the IC50 value of Rb inhibition for individual test compounds.

[3] = target: T2, FMS kinase (Homo sapiens, UniProt P07333); assay: LanthaScreen Eu Kinase Binding Assay (ATP, fluorescent-PolyGT substrate); assay type: biochemical
T2 construct: purchased Invitrogen (Life Technologies)
T2 sequence (P07333 20-972): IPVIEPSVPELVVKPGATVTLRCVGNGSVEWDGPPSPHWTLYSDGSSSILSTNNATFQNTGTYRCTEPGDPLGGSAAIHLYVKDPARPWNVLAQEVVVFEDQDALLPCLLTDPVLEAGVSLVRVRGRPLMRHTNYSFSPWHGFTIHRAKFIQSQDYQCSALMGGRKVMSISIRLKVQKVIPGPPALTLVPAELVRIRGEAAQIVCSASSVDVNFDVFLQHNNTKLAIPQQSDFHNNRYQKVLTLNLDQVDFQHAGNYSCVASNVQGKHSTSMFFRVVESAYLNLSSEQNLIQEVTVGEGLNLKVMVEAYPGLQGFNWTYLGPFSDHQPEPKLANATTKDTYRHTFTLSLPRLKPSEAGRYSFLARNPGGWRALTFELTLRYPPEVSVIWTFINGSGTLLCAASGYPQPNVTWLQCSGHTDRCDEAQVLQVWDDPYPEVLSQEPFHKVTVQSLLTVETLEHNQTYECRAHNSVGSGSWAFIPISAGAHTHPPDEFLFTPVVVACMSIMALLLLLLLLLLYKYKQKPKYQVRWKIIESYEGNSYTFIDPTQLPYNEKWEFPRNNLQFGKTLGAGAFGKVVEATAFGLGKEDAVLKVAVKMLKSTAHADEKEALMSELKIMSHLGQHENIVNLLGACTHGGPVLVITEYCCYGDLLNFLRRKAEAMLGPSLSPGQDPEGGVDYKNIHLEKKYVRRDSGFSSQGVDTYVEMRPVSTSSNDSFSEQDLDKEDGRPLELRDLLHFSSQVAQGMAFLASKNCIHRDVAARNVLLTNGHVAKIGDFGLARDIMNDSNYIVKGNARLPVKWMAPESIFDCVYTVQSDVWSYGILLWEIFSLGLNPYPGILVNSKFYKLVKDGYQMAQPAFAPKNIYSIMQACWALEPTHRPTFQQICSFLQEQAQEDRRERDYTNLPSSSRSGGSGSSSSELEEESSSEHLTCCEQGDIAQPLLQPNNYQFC
Procedure, shortened: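 TR-FRET read (ex 340, em 495 and 520 nm) after EDTA/Tb-labelled antibody stop; IC50 by four-parameter logistic fit of percent inhibition. Reaction: 1.25 nM FMS, 10 min compound preincubation (3-fold series), then 1 h at room temperature with 10 μM ATP and 200 nM fluorescent PolyGT.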

[4] = system: MCF-7 breast adenocarcinoma cells; assay: Cancer cell proliferation assay, single agent (cell viability); assay type: cell-based; settings: Homo sapiens
Procedure, shortened: (§1)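 Viability read by resazurin or CellTiter-Glo after 24 h treatment (BT-549) or 144 h with a 72 h medium change (MCF-7, DU4475). Compounds tested at 7–9 concentrations, e.g. 1.1 nM–10 μM, added the day after seeding; IC50 by nonlinear sigmoidal regression.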

[5] = target: T3, CDK4 (Homo sapiens, UniProt P11802); assay: In vitro kinase inhibition IC50, luminescence (ADP Glo), retinoblastoma substrate; assay type: biochemical; settings: read-out: CDK4/D1 IC50
T3 construct: purchased Invitrogen PR8064A
T3 sequence (P11802 whole entry): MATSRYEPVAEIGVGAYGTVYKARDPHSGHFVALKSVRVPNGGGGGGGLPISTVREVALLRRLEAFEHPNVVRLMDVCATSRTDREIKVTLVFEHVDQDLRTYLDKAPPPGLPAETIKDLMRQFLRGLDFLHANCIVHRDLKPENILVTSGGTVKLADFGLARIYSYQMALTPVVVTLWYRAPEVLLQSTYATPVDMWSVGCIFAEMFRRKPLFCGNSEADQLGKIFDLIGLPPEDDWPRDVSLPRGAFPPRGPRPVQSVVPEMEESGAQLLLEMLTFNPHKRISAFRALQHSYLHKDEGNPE
T3 sequence (P24385 whole entry partner): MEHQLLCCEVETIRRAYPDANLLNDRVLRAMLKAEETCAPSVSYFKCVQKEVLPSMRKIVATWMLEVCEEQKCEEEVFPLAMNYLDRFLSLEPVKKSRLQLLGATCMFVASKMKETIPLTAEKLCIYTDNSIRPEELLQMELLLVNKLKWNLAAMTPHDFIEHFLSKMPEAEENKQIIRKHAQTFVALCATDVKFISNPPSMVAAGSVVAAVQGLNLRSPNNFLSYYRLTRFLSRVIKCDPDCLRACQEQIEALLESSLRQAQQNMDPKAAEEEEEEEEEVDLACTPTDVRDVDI
Procedure, shortened: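 Inhibition of CDK4 was quantified by ADP Glo luminescence with retinoblastoma as substrate. Reactions held 5 nM kinase, 1 μM retinoblastoma and 25 μM ATP and ran 2H at room temperature. A Synergy Neo reader took signals 15 min and 45 min after detection reagent, and percent inhibition was fitted to a four-parameter logistic model in XLfit to obtain IC50.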

[6] = target: T4, CDK6 (Homo sapiens, UniProt Q00534); assay: as above; assay type: biochemical; settings: read-out: CDK6/D1 IC50
T4 construct: purchased Invitrogen PR8422B
T4 sequence (Q00534 whole entry): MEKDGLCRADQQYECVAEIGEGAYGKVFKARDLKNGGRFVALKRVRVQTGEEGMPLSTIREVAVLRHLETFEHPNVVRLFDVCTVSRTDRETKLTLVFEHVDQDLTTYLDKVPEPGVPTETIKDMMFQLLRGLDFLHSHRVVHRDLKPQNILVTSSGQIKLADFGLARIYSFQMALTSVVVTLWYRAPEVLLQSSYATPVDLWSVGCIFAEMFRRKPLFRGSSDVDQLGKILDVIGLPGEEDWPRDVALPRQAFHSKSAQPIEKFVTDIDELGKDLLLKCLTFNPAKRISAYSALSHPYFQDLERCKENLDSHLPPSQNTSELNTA
T4 sequence (P24385 whole entry partner): as the sequence (P24385 whole entry partner) above
Procedure, shortened: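 IC50 derived by four-parameter logistic fit of percent inhibition, read as ADP-Glo luminescence. Reactions: 5 nM CDK6, 1 μM retinoblastoma, 25 μM ATP, test compound 0.1–200 nM final, 2 h at room temperature.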

[7] = target: T5, CDK1 (cyclin B) (Homo sapiens, UniProt P06493); assay: Z'-LYTE kinase assay; assay type: biochemical
T5 construct: purchased Invitrogen Life Technologies (assay service)
T5 sequence (P06493 whole entry): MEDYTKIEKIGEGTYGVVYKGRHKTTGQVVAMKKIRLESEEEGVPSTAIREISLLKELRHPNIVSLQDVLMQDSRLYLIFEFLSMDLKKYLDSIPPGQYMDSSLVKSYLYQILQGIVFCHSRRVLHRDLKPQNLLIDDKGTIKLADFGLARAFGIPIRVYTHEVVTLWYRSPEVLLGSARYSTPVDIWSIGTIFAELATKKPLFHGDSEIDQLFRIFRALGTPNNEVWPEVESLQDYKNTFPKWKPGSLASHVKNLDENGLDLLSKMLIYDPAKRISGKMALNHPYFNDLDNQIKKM
T5 sequence (P14635 whole entry partner): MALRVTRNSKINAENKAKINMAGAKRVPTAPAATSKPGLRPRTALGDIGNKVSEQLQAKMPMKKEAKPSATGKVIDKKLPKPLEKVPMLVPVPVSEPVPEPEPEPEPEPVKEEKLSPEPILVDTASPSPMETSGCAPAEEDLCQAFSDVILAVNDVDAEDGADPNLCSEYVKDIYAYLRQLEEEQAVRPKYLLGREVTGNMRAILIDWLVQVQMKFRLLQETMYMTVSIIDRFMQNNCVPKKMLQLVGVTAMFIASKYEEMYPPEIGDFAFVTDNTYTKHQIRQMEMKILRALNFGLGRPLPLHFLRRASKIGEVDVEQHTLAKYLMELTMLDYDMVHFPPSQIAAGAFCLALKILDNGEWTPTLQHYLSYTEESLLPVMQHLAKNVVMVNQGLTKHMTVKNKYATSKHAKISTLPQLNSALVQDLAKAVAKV
Procedure: The plates were shaken for 30 seconds, and incubated for 60 minutes at room temperature. […] The plates were read on fluorescence plate reader with Dual emission at 445 nm and 520 nm.
The following equations were used for Z′-LYTE™ Screening Assay Data Analysis.

[8] = system: MCF-7-PR (palbociclib-resistant MCF-7) cells; assay: Cell viability in palbociclib-resistant cell line; assay type: cell-based; settings: for IC50: Homo sapiens, MCF7, Table 5, palbociclib-resistant cell line maintained at about 850 nM palbociclib
Procedure: Cells were treated with test compounds at 7 to 9 concentrations within a desired concentration range (e.g. 1.1 nM-10 μM) on day 2 by series diluting the test compound stock solution (10 mM in DMSO) with culture medium. Treatment duration was 24 Hr for BT-549 cells and 144 Hr (with a medium change at 72 Hr) for MCF-7 and DU4475 cells. Cell viability was assessed by Cell Titer-Glo® as recommended by Promega (Cat. No.: G7572), or by resazurin assay (Sigma Aldrich, Cat. No.: R7017) post treatment.
Cell viability data were plotted using GraphPad Prism (GraphPad Software, Inc., San Diego, Calif.). In addition, a nonlinear regression model with a sigmoidal dose response and variable slope within GraphPad Prism was used to calculate the IC50 value of individual test compounds.
The effects of test compounds in a palbociclib-resistant cell line and a parental, non-resistant cell line were compared. The palbociclib-resistant cell line (“MCF-7-PR”) was derived from the parental, non-resistant cell line (MCF-7 breast adenocarcinoma cells) by culture of cells over a period of three months in increasing concentrations of palbociclib, starting from about 350 nM and ending at about 850 nM, the final concentration at which they were then maintained in culture. The MCF-7-PR cells were checked using a cell viability assay to confirm that they had at least 5-fold resistance to palbociclib compared to parental MCF-7 cells, as measured by an increase in the cell viability IC50 values. Assessment of cell viability following treatment with palbociclib or test compounds was performed according to the method described above for MCF-7 cells.

[9] = target: T6, CDK2 (cyclin A) (Homo sapiens, UniProt P24941); assay: Z'-LYTE kinase assay; assay type: biochemical
T6 construct: purchased Invitrogen Life Technologies (assay service)
Procedure, shortened: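 FRET-based Z′-LYTE read-out using 1.22–10.3 ng CDK2/cyclin A with Ser/Thr 12 peptide (2 μM in the 2× mix) and ATP (31 μM as the 4× solution), in HEPES pH 7.5, MgCl2, EGTA and BRIJ-35, for 60 min at room temperature. After 1 h of development, the 445/520 nm emission was read, and percent inhibition was fitted to a four-parameter logistic curve for IC50.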

[10] = system: DU4475 breast carcinoma cells; assay: Cancer cell proliferation assay, single agent (cell viability); assay type: cell-based; settings: Homo sapiens, DU-4475; Table 4; Rb negative; treatment 144 Hr with medium change at 72 Hr; Cell Titer-Glo or resazurin
Procedure, shortened: as §1

[11] = MCF7, Table 4, Rb positive, treatment 144 Hr with medium change at 72 Hr, Cell Titer-Glo or resazurin
[12] = MCF7, Table 5, parental, non-resistant cell line compared with MCF-7-PR

T1 sequence (O00329 whole entry): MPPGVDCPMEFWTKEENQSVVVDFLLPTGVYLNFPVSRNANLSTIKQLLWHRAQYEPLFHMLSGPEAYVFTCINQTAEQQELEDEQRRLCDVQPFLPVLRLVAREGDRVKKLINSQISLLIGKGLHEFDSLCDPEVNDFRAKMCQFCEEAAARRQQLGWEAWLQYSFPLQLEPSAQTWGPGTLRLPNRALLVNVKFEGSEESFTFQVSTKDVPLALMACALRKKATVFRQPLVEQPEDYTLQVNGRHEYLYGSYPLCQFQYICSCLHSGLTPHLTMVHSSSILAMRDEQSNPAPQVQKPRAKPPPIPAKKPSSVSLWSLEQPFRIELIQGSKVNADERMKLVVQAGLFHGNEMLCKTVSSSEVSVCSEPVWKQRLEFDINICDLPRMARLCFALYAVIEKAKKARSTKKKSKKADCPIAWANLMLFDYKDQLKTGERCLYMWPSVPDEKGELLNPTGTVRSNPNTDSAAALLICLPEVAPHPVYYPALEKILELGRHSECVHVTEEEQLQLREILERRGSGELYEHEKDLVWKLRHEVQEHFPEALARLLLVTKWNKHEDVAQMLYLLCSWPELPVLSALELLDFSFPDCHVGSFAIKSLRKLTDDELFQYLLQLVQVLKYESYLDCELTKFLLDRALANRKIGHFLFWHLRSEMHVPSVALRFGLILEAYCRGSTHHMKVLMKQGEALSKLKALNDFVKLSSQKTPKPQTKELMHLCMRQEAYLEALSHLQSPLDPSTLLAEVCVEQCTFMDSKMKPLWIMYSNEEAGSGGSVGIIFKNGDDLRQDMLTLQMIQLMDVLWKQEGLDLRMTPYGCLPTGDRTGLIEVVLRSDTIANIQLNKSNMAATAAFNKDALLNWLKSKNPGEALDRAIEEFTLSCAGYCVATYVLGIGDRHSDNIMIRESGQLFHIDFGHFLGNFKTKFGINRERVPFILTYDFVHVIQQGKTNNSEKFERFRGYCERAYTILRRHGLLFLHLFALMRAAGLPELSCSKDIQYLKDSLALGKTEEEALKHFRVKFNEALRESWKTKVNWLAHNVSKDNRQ
T1 sequence (P27986 whole entry partner): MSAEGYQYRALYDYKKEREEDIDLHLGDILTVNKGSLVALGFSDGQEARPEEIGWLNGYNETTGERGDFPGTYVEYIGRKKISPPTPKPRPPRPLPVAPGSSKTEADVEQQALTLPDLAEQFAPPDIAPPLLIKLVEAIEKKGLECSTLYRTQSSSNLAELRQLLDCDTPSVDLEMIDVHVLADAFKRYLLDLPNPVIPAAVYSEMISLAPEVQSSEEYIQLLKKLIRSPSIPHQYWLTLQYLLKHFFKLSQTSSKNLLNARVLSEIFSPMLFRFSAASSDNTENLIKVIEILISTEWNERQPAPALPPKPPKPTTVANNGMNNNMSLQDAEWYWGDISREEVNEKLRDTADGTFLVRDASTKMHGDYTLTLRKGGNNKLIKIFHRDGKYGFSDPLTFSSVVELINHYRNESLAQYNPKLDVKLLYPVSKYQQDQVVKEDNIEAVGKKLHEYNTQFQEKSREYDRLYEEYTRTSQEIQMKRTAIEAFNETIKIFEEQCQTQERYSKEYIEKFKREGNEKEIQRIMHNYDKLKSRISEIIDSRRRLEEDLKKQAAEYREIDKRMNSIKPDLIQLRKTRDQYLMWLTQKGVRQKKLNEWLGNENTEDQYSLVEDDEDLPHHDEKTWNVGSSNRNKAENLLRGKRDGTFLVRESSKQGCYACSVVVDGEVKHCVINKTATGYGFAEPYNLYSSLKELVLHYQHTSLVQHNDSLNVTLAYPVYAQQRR

## N#Cc1cc2cnc(Nc3ccc(N4CCNCC4)cc3)nc2n(C2CCCc3ccccc32)c1=O (stereo not shown) [Compound No. 39, 7-oxo-2-((4-(piperazin-1-yl)phenyl)amino)-8-(1,2,3,4-tetrahydronaphthalen-1-yl)-7,8-dihydropyrido[2,3-d]pyrimidine-6-carbonitrile]
[1]
  IC50: 0.906 µM
[2]; MCF7, 0.01 μM
  inhibition at 0.01 µM: -25%
[2]; MCF7, 0.1 μM
  inhibition at 0.1 µM: 40%
[2]; MCF7, 1 μM
  inhibition at 1 µM: 52%
[3]
  IC50: 0.007 µM
[4]; [11]
  IC50: 2.27 µM
[5]
  IC50: 0.002 µM
[6]
  IC50: 0.0015 µM

## CS(=O)(=O)N1CCC(Nc2ncc3cc(C#N)c(=O)n([C@H]4C[C@@H]5CC[C@H]4C5)c3n2)CC1 (racemic) [Compound No. 353, 8-((1S,2S,4R)-bicyclo[2.2.1]heptan-2-yl)-2-(1-(methylsulfonyl)piperidin-4-ylamino)-7-oxo-7,8-dihydropyrido[2,3-d]pyrimidine-6-carbonitrile]
[7]
  IC50: > 2.6 µM
[8]
  IC50: 0.769 µM
[9]
  IC50: 0.01 µM
[3]
  IC50: 0.069 µM
[4]; [11]
  IC50: 0.515 µM
[4]; [12]
  IC50: 0.347 µM
[10]
  IC50: 0.9 µM
[5]
  IC50: 0.015 µM
[6]
  IC50: 0.013 µM

## CC(=O)c1c(C)c2cnc(Nc3ccc(N4CCNCC4)cn3)nc2n(C2CCCC2)c1=O [palbociclib, reference compound]
[8]; MCF-7-PR versus parental MCF-7
  resistance to palbociclib compared to parental MCF-7 cells (increase in cell viability IC50): at least 5 fold

## CCS(=O)(=O)N1CCC(Nc2ncc3cc(C#N)c(=O)n(C4CCCC4)c3n2)CC1 [Compound No. 357, 8-cyclopentyl-2-((1-(ethylsulfonyl)piperidin-4-yl)amino)-7-oxo-7,8-dihydropyrido[2,3-d]pyrimidine-6-carbonitrile]
[1]
  IC50: > 25.3 µM
[7]
  IC50: 0.23 µM
[9]
  IC50: 0.011 µM
[3]
  IC50: 0.49 µM
[4]; [11]
  IC50: 0.19 µM
[10]
  IC50: 1.3 µM
[5]
  IC50: 0.0027 µM
[6]
  IC50: 0.0058 µM

## N#Cc1cc2cnc(Nc3ccc(N4CCNCC4)c(C(F)(F)F)c3)nc2n(C2CCCC2)c1=O [Compound No. 33, 8-cyclopentyl-7-oxo-2-((4-(piperazin-1-yl)-3-(trifluoromethyl)phenyl)amino)-7,8-dihydropyrido[2,3-d]pyrimidine-6-carbonitrile]
[1]
  IC50: 1.66 µM
[8]
  IC50: 0.065 µM
[3]
  IC50: 0.0042 µM
[4]; [11]
  IC50: 0.155 µM
[4]; [12]
  IC50: 0.205 µM
[5]
  IC50: > 0.2 µM
[6]
  IC50: > 0.2 µM

## N#Cc1cc2cnc(NC3CCN(S(=O)(=O)C4CC4)CC3)nc2n(C2CCCC2)c1=O [Compound No. 356, 8-cyclopentyl-2-((1-(cyclopropylsulfonyl)piperidin-4-yl)amino)-7-oxo-7,8-dihydropyrido[2,3-d]pyrimidine-6-carbonitrile]
[1]
  IC50: 19.9 µM
[7]
  IC50: 0.055 µM
[9]
  IC50: 0.0055 µM
[3]
  IC50: 0.055 µM
[4]; [11]
  IC50: 0.175 µM
[10]
  IC50: 1.15 µM
[5]
  IC50: 0.002 µM
[6]
  IC50: 0.0045 µM

## N#Cc1cc2cnc(NC3CCN(S(=O)(=O)CC(F)(F)F)CC3)nc2n(C2CCCC2)c1=O [Compound No. 358, 8-cyclopentyl-7-oxo-2-((1-((2,2,2-trifluoroethyl)sulfonyl)piperidin-4-yl)amino)-7,8-dihydropyrido[2,3-d]pyrimidine-6-carbonitrile]
[1]
  IC50: > 44 µM
[7]
  IC50: 1.38 µM
[9]
  IC50: 0.119 µM
[3]
  IC50: 1.13 µM
[4]; [11]
  IC50: 2.8 µM
[10]
  IC50: 12.8 µM
[5]
  IC50: 0.0044 µM
[6]
  IC50: 0.0066 µM

## CS(=O)(=O)N1CCC[C@@H](Nc2ncc3cc(C#N)c(=O)n(C4CCCC4)c3n2)C1 [Compound No. 365, (R)-8-cyclopentyl-2-((1-(methylsulfonyl)piperidin-3-yl)amino)-7-oxo-7,8-dihydropyrido[2,3-d]pyrimidine-6-carbonitrile]
[1]
  IC50: 1.71 µM
[7]; read-out: CDK1/B IC50
  IC50: > 5 µM
[9]
  IC50: 1.24 µM
[3]
  IC50: 0.311 µM
[4]; [11]
  IC50: 1.26 µM
[10]
  IC50: 5.63 µM
[5]
  IC50: 0.167 µM
[6]
  IC50: > 0.2 µM

## CS(=O)(=O)N1CCC[C@H](Nc2ncc3cc(C#N)c(=O)n(C4CCCC4)c3n2)C1 [Compound No. 364, (S)-8-cyclopentyl-2-((1-(methylsulfonyl)piperidin-3-yl)amino)-7-oxo-7,8-dihydropyrido[2,3-d]pyrimidine-6-carbonitrile]
[1]
  IC50: 0.825 µM
[7]; read-out: CDK1/B IC50
  IC50: > 5 µM
[9]
  IC50: > 5 µM
[3]
  IC50: 0.064 µM
[4]; [11]
  IC50: 3.33 µM
[10]
  IC50: 5.67 µM
[5]
  IC50: > 0.2 µM
[6]
  IC50: > 0.2 µM

## N#Cc1cc2cnc(Nc3ccc(N4CCNCC4)c(Cl)c3)nc2n(C2CCCC2)c1=O [Compound No. 30, 2-((3-chloro-4-(piperazin-1-yl)phenyl)amino)-8-cyclopentyl-7-oxo-7,8-dihydropyrido[2,3-d]pyrimidine-6-carbonitrile]
[8]
  IC50: 0.085 µM
[3]
  IC50: 0.006 µM
[4]; [11]
  IC50: 0.11 µM
[4]; [12]
  IC50: 0.115 µM
[5]
  IC50: 0.0045 µM
[6]
  IC50: 0.0095 µM

## N#Cc1cc2cnc(Nc3ccc4c(c3)CCNC4)nc2n(C2CCC(F)(F)C2)c1=O (stereo not shown) [Compound No. 344, 8-(3,3-difluorocyclopentyl)-7-oxo-2-((1,2,3,4-tetrahydroisoquinolin-6-yl)amino)-7,8-dihydropyrido[2,3-d]pyrimidine-6-carbonitrile]
[1]
  IC50: 1.63 µM
[7]; read-out: CDK1/B IC50
  IC50: > 4.67 µM
[9]
  IC50: 0.201 µM
[3]
  IC50: 0.0035 µM
[4]; [11]
  IC50: 0.435 µM
[10]
  IC50: 0.96 µM
[5]
  IC50: 0.0775 µM
[6]
  IC50: 0.064 µM

From US20220273659A1, “HETEROCYCLIC COMPOUNDS AS KINASE INHIBITORS” (NUVATION BIO INC., priority 2019, published 2022)
